According to ChEMBL document CHEMBL2429749, “Trichinenlides A-T, mexicanolide-type limonoids from Trichilia sinensis” (J Nat Prod, 2013):

Each compound was assayed on RAW264.7 (assay: Antiinflammatory activity in mouse RAW264.7 cells assessed as inhibition of LPS-induced nitric oxide production preincubated for 2 hrs followed by LPS challenge measured after 24 hrs).
Type: functional, cell-based

IC50 [µM]	SMILES
3.33	C/C=C/C(=O)O[C@H]1C(C)(C)[C@H](CC(=O)OC)[C@]2(C)C(=O)[C@@]1(O)[C@H]1O[C@]13[C@@H]1CC(=O)O[C@@H](c4ccoc4)[C@]1(C)CC[C@H]23
5	COc1cc(/C=C/C(=O)CC(=O)/C=C/c2ccc(O)c(OC)c2)ccc1O [CURCUMIN]
2.85	C/C=C/C(=O)O[C@H]1C(C)(C)[C@H](CC(=O)OC)[C@]2(C)C(=O)[C@@]1(O)[C@H]1O[C@@]13C2=CC[C@]1(C)[C@H]3CC(=O)O[C@H]1c1ccoc1 [TRICHINENLIDE B]
1.88	C/C=C/C(=O)O[C@H]1C(C)(C)[C@H](C(O)C(=O)OC)[C@]2(C)C(=O)[C@@]1(O)[C@H]1O[C@@]13C2=CC[C@]1(C)[C@H]3CC(=O)O[C@H]1c1ccoc1 (some centres undefined) [TRICHINENLIDE C]
